In brackets after ≈: the same amount, converted by molar mass.
System: N. gonorrhoeae clinical isolates
Assay: MIC, agar dilution (CLSI)
Type: cell-based, Neisseria gonorrhoeae

SMILES: CN(C)[C@@H]1C(O)=C(C(N)=O)C(=O)[C@@]2(O)C(O)=C3C(=O)c4c(O)cccc4[C@@](C)(O)[C@H]3C[C@@H]12 [Tet, tetracycline]
- MIC range (96 clinical isolates): 0.063 to 16 µg/mL
- MIC50 (Neisseria gonorrhoeae): 1 µg/mL (≈ 2.25 µM)
- MIC90 (Neisseria gonorrhoeae): 1 µg/mL (≈ 2.25 µM)
- MIC (Neisseria gonorrhoeae, strain CDC1 (GCREF2012 016)): 2 µg/mL (≈ 4.5 µM)
- MIC (Neisseria gonorrhoeae, strain CDC2 (GCREF2012 045)): 1 µg/mL (≈ 2.25 µM)
- MIC (Neisseria gonorrhoeae, strain CDC3 (GCREF2013 013)): 1 µg/mL (≈ 2.25 µM)
- MIC (Neisseria gonorrhoeae, strain CDC4 (GCREF2013 030)): 0.5 µg/mL (≈ 1.13 µM)
- MIC (Neisseria gonorrhoeae, strain CDC5 (GCREF2012 001)): 1 µg/mL (≈ 2.25 µM)
- MIC (Neisseria gonorrhoeae, strain CDC6 (GCREF2012 002)): 1 µg/mL (≈ 2.25 µM)
- MIC (Neisseria gonorrhoeae, strain CDC8 (GCREF2012 004)): 1 µg/mL (≈ 2.25 µM)
- MIC (Neisseria gonorrhoeae, strain CDC9 (GCREF2012 005)): 1 µg/mL (≈ 2.25 µM)
- MIC (Neisseria gonorrhoeae, strain CDC10 (GCREF2012 006)): 1 µg/mL (≈ 2.25 µM)
- MIC (Neisseria gonorrhoeae, strain CDC11 (GCREF2012 007)): 1 µg/mL (≈ 2.25 µM)
- MIC (Neisseria gonorrhoeae, strain CDC12 (GCREF2012 008)): 1 µg/mL (≈ 2.25 µM)
- MIC (Neisseria gonorrhoeae, strain CDC13 (GCREF2012 009)): 1 µg/mL (≈ 2.25 µM)
- MIC (Neisseria gonorrhoeae, strain CDC14 (GCREF2012 010)): 1 µg/mL (≈ 2.25 µM)
- MIC (Neisseria gonorrhoeae, strain CDC15 (GCREF2012 011)): 0.5 µg/mL (≈ 1.13 µM)
- MIC (Neisseria gonorrhoeae, strain CDC16 (GCREF2012 012)): 1 µg/mL (≈ 2.25 µM)
- MIC (Neisseria gonorrhoeae, strain CDC18 (GCREF2012 014)): 1 µg/mL (≈ 2.25 µM)
- MIC (Neisseria gonorrhoeae, strain CDC19 (GCREF2012 015)): 0.5 µg/mL (≈ 1.13 µM)
- MIC (Neisseria gonorrhoeae, strain CDC20 (GCREF2012 017)): 1 µg/mL (≈ 2.25 µM)
- MIC (Neisseria gonorrhoeae, strain CDC21 (GCREF2012 018)): 1 µg/mL (≈ 2.25 µM)
- MIC (Neisseria gonorrhoeae, strain CDC22 (GCREF2012 019)): 1 µg/mL (≈ 2.25 µM)
- MIC (Neisseria gonorrhoeae, strain CDC23 (GCREF2012 020)): 1 µg/mL (≈ 2.25 µM)
- MIC (Neisseria gonorrhoeae, strain CDC24 (GCREF2012 021)): 1 µg/mL (≈ 2.25 µM)
- MIC (Neisseria gonorrhoeae, strain CDC25 (GCREF2012 022)): 1 µg/mL (≈ 2.25 µM)
- MIC (Neisseria gonorrhoeae, strain CDC26 (GCREF2012 023)): 0.5 µg/mL (≈ 1.13 µM)
- MIC (Neisseria gonorrhoeae, strain CDC27 (GCREF2012 024)): 1 µg/mL (≈ 2.25 µM)
- MIC (Neisseria gonorrhoeae, strain CDC28 (GCREF2012 025)): 1 µg/mL (≈ 2.25 µM)
- MIC (Neisseria gonorrhoeae, strain CDC29 (GCREF2012 026)): 1 µg/mL (≈ 2.25 µM)
- MIC (Neisseria gonorrhoeae, strain CDC30 (GCREF2012 027)): 1 µg/mL (≈ 2.25 µM)
- MIC (Neisseria gonorrhoeae, strain CDC31 (GCREF2012 028)): 2 µg/mL (≈ 4.5 µM)
- MIC (Neisseria gonorrhoeae, strain CDC32 (GCREF2012 029)): 0.5 µg/mL (≈ 1.13 µM)
- MIC (Neisseria gonorrhoeae, strain CDC33 (GCREF2012 030)): 0.5 µg/mL (≈ 1.13 µM)
- MIC (Neisseria gonorrhoeae, strain CDC34 (GCREF2012 031)): 1 µg/mL (≈ 2.25 µM)
- MIC (Neisseria gonorrhoeae, strain CDC35 (GCREF2012 032)): 2 µg/mL (≈ 4.5 µM)
- MIC (Neisseria gonorrhoeae, strain CDC36 (GCREF2012 033)): 1 µg/mL (≈ 2.25 µM)
- MIC (Neisseria gonorrhoeae, strain CDC37 (GCREF2012 034)): 1 µg/mL (≈ 2.25 µM)
- MIC (Neisseria gonorrhoeae, strain CDC38 (GCREF2012 035)): 1 µg/mL (≈ 2.25 µM)
- MIC (Neisseria gonorrhoeae, strain CDC39 (GCREF2012 036)): 1 µg/mL (≈ 2.25 µM)
- MIC (Neisseria gonorrhoeae, strain CDC40 (GCREF2012 037)): 1 µg/mL (≈ 2.25 µM)
- MIC (Neisseria gonorrhoeae, strain CDC41 (GCREF2012 038)): 1 µg/mL (≈ 2.25 µM)
- MIC (Neisseria gonorrhoeae, strain CDC42 (GCREF2012 039)): 2 µg/mL (≈ 4.5 µM)
- MIC (Neisseria gonorrhoeae, strain CDC43 (GCREF2012 040)): 2 µg/mL (≈ 4.5 µM)
- MIC (Neisseria gonorrhoeae, strain CDC45 (GCREF2012 042)): 2 µg/mL (≈ 4.5 µM)
- MIC (Neisseria gonorrhoeae, strain CDC46 (GCREF2012 043)): 1 µg/mL (≈ 2.25 µM)
- MIC (Neisseria gonorrhoeae, strain CDC47 (GCREF2012 044)): 1 µg/mL (≈ 2.25 µM)
- MIC (Neisseria gonorrhoeae, strain CDC48 (GCREF2012 046)): 1 µg/mL (≈ 2.25 µM)
- MIC (Neisseria gonorrhoeae, strain CDC49 (GCREF2012 047)): 1 µg/mL (≈ 2.25 µM)
- MIC (Neisseria gonorrhoeae, strain CDC50 (GCREF2012 048)): 1 µg/mL (≈ 2.25 µM)
- MIC (Neisseria gonorrhoeae, strain CDC51 (GCREF2012 049)): 1 µg/mL (≈ 2.25 µM)
- MIC (Neisseria gonorrhoeae, strain CDC52 (GCREF2012 050)): 1 µg/mL (≈ 2.25 µM)
- MIC (Neisseria gonorrhoeae, strain CDC53 (GCREF2012 051)): 1 µg/mL (≈ 2.25 µM)
- MIC (Neisseria gonorrhoeae, strain CDC54 (GCREF2012 052)): 1 µg/mL (≈ 2.25 µM)
- MIC (Neisseria gonorrhoeae, strain CDC55 (GCREF2013 001)): 1 µg/mL (≈ 2.25 µM)
- MIC (Neisseria gonorrhoeae, strain CDC56 (GCREF2013 002)): 1 µg/mL (≈ 2.25 µM)
- MIC (Neisseria gonorrhoeae, strain CDC57 (GCREF2013 003)): 0.5 µg/mL (≈ 1.13 µM)
- MIC (Neisseria gonorrhoeae, strain CDC58 (GCREF2013 004)): 1 µg/mL (≈ 2.25 µM)
- MIC (Neisseria gonorrhoeae, strain CDC59 (GCREF2013 044)): 16 µg/mL (≈ 36 µM)
- MIC (Neisseria gonorrhoeae, strain CDC60 (GCREF2013 005)): 1 µg/mL (≈ 2.25 µM)
- MIC (Neisseria gonorrhoeae, strain CDC61 (GCREF2013 006)): 1 µg/mL (≈ 2.25 µM)
- MIC (Neisseria gonorrhoeae, strain CDC62 (GCREF2013 007)): 0.5 µg/mL (≈ 1.13 µM)
- MIC (Neisseria gonorrhoeae, strain CDC63 (GCREF2013 008)): 0.063 µg/mL (≈ 0.142 µM)
- MIC (Neisseria gonorrhoeae, strain CDC64 (GCREF2013 009)): 1 µg/mL (≈ 2.25 µM)
- MIC (Neisseria gonorrhoeae, strain CDC65 (GCREF2013 010)): 0.5 µg/mL (≈ 1.13 µM)
- MIC (Neisseria gonorrhoeae, strain CDC66 (GCREF2013 011)): 0.5 µg/mL (≈ 1.13 µM)
- MIC (Neisseria gonorrhoeae, strain CDC67 (GCREF2013 014)): 1 µg/mL (≈ 2.25 µM)
- MIC (Neisseria gonorrhoeae, strain CDC68 (GCREF2013 016)): 1 µg/mL (≈ 2.25 µM)
- MIC (Neisseria gonorrhoeae, strain CDC69 (GCREF2013 017)): 1 µg/mL (≈ 2.25 µM)
- MIC (Neisseria gonorrhoeae, strain CDC70 (GCREF2013 018)): 1 µg/mL (≈ 2.25 µM)
- MIC (Neisseria gonorrhoeae, strain CDC71 (GCREF2013 019)): 1 µg/mL (≈ 2.25 µM)
- MIC (Neisseria gonorrhoeae, strain CDC72 (GCREF2013 020)): 1 µg/mL (≈ 2.25 µM)
- MIC (Neisseria gonorrhoeae, strain CDC73 (GCREF2013 021)): 1 µg/mL (≈ 2.25 µM)
- MIC (Neisseria gonorrhoeae, strain CDC74 (GCREF2013 022)): 1 µg/mL (≈ 2.25 µM)
- MIC (Neisseria gonorrhoeae, strain CDC75 (GCREF2013 023)): 1 µg/mL (≈ 2.25 µM)
- MIC (Neisseria gonorrhoeae, strain CDC76 (GCREF2013 024)): 1 µg/mL (≈ 2.25 µM)
- MIC (Neisseria gonorrhoeae, strain CDC77 (GCREF2013 025)): 1 µg/mL (≈ 2.25 µM)
- MIC (Neisseria gonorrhoeae, strain CDC78 (GCREF2013 026)): 1 µg/mL (≈ 2.25 µM)
- MIC (Neisseria gonorrhoeae, strain CDC79 (GCREF2013 027)): 1 µg/mL (≈ 2.25 µM)
- MIC (Neisseria gonorrhoeae, strain CDC80 (GCREF2013 028)): 1 µg/mL (≈ 2.25 µM)
- MIC (Neisseria gonorrhoeae, strain CDC81 (GCREF2013 029)): 1 µg/mL (≈ 2.25 µM)
- MIC (Neisseria gonorrhoeae, strain CDC82 (GCREF2013 031)): 0.5 µg/mL (≈ 1.13 µM)
- MIC (Neisseria gonorrhoeae, strain CDC83 (GCREF2013 032)): 0.5 µg/mL (≈ 1.13 µM)
- MIC (Neisseria gonorrhoeae, strain CDC84 (GCREF2013 033)): 0.5 µg/mL (≈ 1.13 µM)
- MIC (Neisseria gonorrhoeae, strain CDC86 (GCREF2013 035)): 0.25 µg/mL (≈ 0.563 µM)
- MIC (Neisseria gonorrhoeae, strain CDC87 (GCREF2013 036)): 1 µg/mL (≈ 2.25 µM)
- MIC (Neisseria gonorrhoeae, strain CDC88 (GCREF2013 037)): 0.5 µg/mL (≈ 1.13 µM)
- MIC (Neisseria gonorrhoeae, strain CDC89 (GCREF2013 038)): 1 µg/mL (≈ 2.25 µM)
- MIC (Neisseria gonorrhoeae, strain CDC90 (GCREF2013 039)): 1 µg/mL (≈ 2.25 µM)
- MIC (Neisseria gonorrhoeae, strain CDC91 (GCREF2013 040)): 1 µg/mL (≈ 2.25 µM)
- MIC (Neisseria gonorrhoeae, strain CDC92 (GCREF2013 041)): 1 µg/mL (≈ 2.25 µM)
- MIC (Neisseria gonorrhoeae, strain CDC93 (GCREF2013 042)): 1 µg/mL (≈ 2.25 µM)
- MIC (Neisseria gonorrhoeae, strain CDC94 (GCREF2013 043)): 0.5 µg/mL (≈ 1.13 µM)
- MIC (Neisseria gonorrhoeae, strain CDC95 (GCREF2013 045)): 1 µg/mL (≈ 2.25 µM)
- MIC (Neisseria gonorrhoeae, strain CDC96 (GCREF2013 046)): 0.5 µg/mL (≈ 1.13 µM)
- MIC (Neisseria gonorrhoeae, strain CDC97 (GCREF2013 047)): 1 µg/mL (≈ 2.25 µM)
- MIC (Neisseria gonorrhoeae, strain CDC98 (GCREF2013 048)): 0.5 µg/mL (≈ 1.13 µM)
- MIC (Neisseria gonorrhoeae, strain CDC99 (GCREF2013 012)): 0.5 µg/mL (≈ 1.13 µM)
- MIC (Neisseria gonorrhoeae, strain CDC100 (GCREF2013 015)): 1 µg/mL (≈ 2.25 µM)
